# Results taken from patent EP0402033A1, “Carboxamide derivatives” (OTSUKA PHARMACEUTICAL FACTORY, INC., priority 1989, dated 1990).
# Experiments:
# [1] = test system: plasma high density lipoprotein cholesterol (HDLC); assay: Pharmacological Test - 1: increase of plasma HDLC concentration in rats after oral administration; type: in vivo, Wistar strain male rats; conditions: Wistar male rats, 300 mg/5 ml/kg/day for 2 days in 0.5%-CMC, blood taken after 20 hours fasting, relative to control group
# Method: Seven-week-old Wistar strain male rats were used as the test animals. One test group consisting of six (6) rats. A test compound was suspended in a 0.5%-carboxymethyl cellulose (CMC) aqueous solution, thus prepared suspension containing the test compound was orally administered compulsorily by using a sonde to the rat in the amount of 300 mg/5 ml/kg/day for 2 days. Similar to the test group, to each of six (6) rats in the control group was administered with 0.5%-CMC aqueous solution without containing the test compound.
# After the final administration was finished, the test rat was fasted for 20 hours, and the blood sample was taken from the rat. The concentration of plasma high density lipoprotein cholesterol (HDLC) was determined by using a measuring instrument of HDL-C kit-N (manufactured by Nihon Shoji Kabushiki Kaisha).
# Increasing ratio (%) of plasma HDLC concentration performed by a test compound was calculated from the formula as follows: [formula]
# erythrocytes = assay: Pharmacological Test - 2 (Hemolysis test) in mice after oral administration; type: in vivo, ddY-strain male mice; conditions: ddY male mice, 600 mg/5 ml/kg/day for 10 days, 20 hours fasting, mean of test group divided by mean of control group
# Method: Seven-week-old ddY-strain male mice were used as test animals. One test group consisting of six (6) mice. A test compound was suspended in a 0.5%-carboxymethyl cellulose (CMC) aqueous solution, thus prepared suspension containing the test compound was orally administered compulsorily by using a sonde to the mouse in the amount of 600 mg/5 ml/kg/day for 10 days. Similar to the above, to each of six mice in the control group was administered with 0.5%-CMC aqueous soluiton without containing the test compound.
# After the final administration was finished, the mouse was fasted for 20 hours, then the mouse was subjected to dissection and the blood sample as well as the sample of the spleen were taken by enucleation. The number of the erythrocytes was counted and the weight of the spleen was measured.
# The ratio of number of the erythrocytes was calculated by dividing the mean value of number of the erythrocytes obtained from the test group by the mean value of number of the erythrocytes obtained from the control group. Similarly, the ratio of weight of the spleen was calculated by dividing the mean value of weight of the spleen obtained from the test group by the mean value of weight of the spleen obtained from the control group.
Compound,Increasing ratio (%) of the plasma HDLC concentration [1],Ratio of number of the erythrocytes (erythrocytes),Ratio of weight of the spleen (erythrocytes)
"CCOP(=O)(Cc1ccc(C(=O)Nc2ccc(Br)cc2C#N)cc1)OCC [Compound of Example 1, 4-diethoxyphosphinoylmethyl-N-(4-bromo-2-cyanophenyl)benzamide]",193%,0.96,1.13
CCOP(=O)(Cc1ccc(C(=O)Nc2ccc(Cl)cc2C#N)cc1)OCC [Compound of Example 2],196%,0.97,1.09
CCOP(=O)(Cc1ccc(C(=O)Nc2ccc(C#N)cc2Cl)cc1)OCC [Compound of Example 3],187%,,
CCOP(=O)(Cc1ccc(C(=O)Nc2ccc(I)cc2C#N)cc1)OCC [Compound of Example 4],187%,,
CCOP(=O)(Cc1ccc(C(=O)Nc2ccc(C#N)cc2Br)cc1)OCC [Compound of Example 5],222%,1.07,0.94
CCOP(=O)(Cc1ccc(C(=O)Nc2ccc(C#N)cc2I)cc1)OCC [Compound of Example 7],184%,,
